Results on six compounds are retold here after PubChem BioAssay AID1963858 (Molecular Pharmacology Branch, DTP, NCI, 2024).

The structures appear in SMILES notation. Where “and” joins values, the source holds several entries; their conditions need not be identical. Equal values may be shown once.

For this assay, the system named is HOP-62 multicell spheroids with HUVEC/MSC, viability. The experiment in a line: Anticancer human tumor HOP-62 cell line growth inhibition [KRAS2].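 On all read-outs here: viability read after a week of compound exposure.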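 On viability, T/C: 100% = DMSO vehicle-treated spheroids.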 The note with it: for viability, T/C: stronger effect = lower value. A digest of the protocol:
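Combination screen of spheroid viability in tumor-cell co-cultures with endothelial (HUVEC) and mesenchymal stem cell stroma. Each agent was tested in half-log dilutions, topping at clinical Cmax or at 10 microM without a known Cmax.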

The mark [1] stands for this setting: curve of first compound, second compound 0.1 µM.
[2] abbreviates: curve of first compound, second compound 0.316 µM.
[3] abbreviates: curve of first compound, second compound 1 µM.
The mark [4] stands for this setting: curve of first compound, second compound 3.16 µM.
[5] abbreviates: curve of first compound, second compound 10 µM.
[6] abbreviates: second compound 0.1 µM, first compound 0.0316 µM.
Setting [7] is: second compound 0.1 µM, first compound 0.1 µM.
Where [8] appears, read: second compound 0.1 µM, first compound 0.316 µM.
Setting [9] is: second compound 0.1 µM, first compound 1 µM.
Where [10] appears, read: second compound 0.1 µM, first compound 3.16 µM.
Setting [11] is: second compound 0.316 µM, first compound 0.0316 µM.
The mark [12] stands for this setting: second compound 0.316 µM, first compound 0.1 µM.
Setting [13] is: second compound 0.316 µM, first compound 0.316 µM.
Where [14] appears, read: second compound 0.316 µM, first compound 1 µM.
[15] abbreviates: second compound 0.316 µM, first compound 3.16 µM.
Where [16] appears, read: second compound 1 µM, first compound 0.0316 µM.
Where [17] appears, read: second compound 1 µM, first compound 0.1 µM.
[18] abbreviates: second compound 1 µM, first compound 0.316 µM.
Setting [19] is: second compound 1 µM, first compound 1 µM.
Setting [20] is: second compound 1 µM, first compound 3.16 µM.
Where [21] appears, read: second compound 3.16 µM, first compound 0.0316 µM.
[22] abbreviates: second compound 3.16 µM, first compound 0.1 µM.
[23] abbreviates: second compound 3.16 µM, first compound 0.316 µM.
[24] abbreviates: second compound 3.16 µM, first compound 1 µM.
[25] abbreviates: second compound 3.16 µM, first compound 3.16 µM.
Setting [26] is: second compound 10 µM, first compound 0.0316 µM.
[27] abbreviates: second compound 10 µM, first compound 0.1 µM.
[28] abbreviates: second compound 10 µM, first compound 0.316 µM.
[29] abbreviates: second compound 10 µM, first compound 1 µM.
Where [30] appears, read: second compound 10 µM, first compound 3.16 µM.
[31] abbreviates: second compound 0.1 µM, first compound 0.01 µM.
The mark [32] stands for this setting: second compound 0.316 µM, first compound 0.01 µM.
Setting [33] is: second compound 1 µM, first compound 0.01 µM.
[34] abbreviates: second compound 3.16 µM, first compound 0.01 µM.
Where [35] appears, read: second compound 10 µM, first compound 0.01 µM.

For orientation: IC50 means the concentration that inhibits the measured activity by half. Usually viability, T/C stands for the result in the treated group divided by that in the control group, in per cent. As for `COC(=O)c1ccc2c(C(=Nc3ccc(N(C)C(=O)CN4CCN(C)CC4)cc3)c3ccccc3)c(O)[nH]c2c1` + CC1OCC2(CCN(c3cnc(Sc4ccnc(N)c4Cl)c(N)n3)CC2)C1N, the IC50 is, setting by setting: under setting [1], 179 nM; under setting [2], 105 nM; under setting [3], under 31.6 nM; under setting [4], under 31.6 nM; under setting [5], under 31.6 nM. The viability, T/C is 75.1% under setting [6]; 57.4% under setting [7]; 43.7% under setting [8]; 29.2% under setting [9]; 25.5% under setting [10]; 22.7% (second compound 0.1 µM, first compound 10 µM). The viability, T/C was 53.9% under setting [11]; 50.9% under setting [12]; 29.4% under setting [13]; 23.6% under setting [14]; 25.1% under setting [15]; 19.5% (second compound 0.316 µM, first compound 10 µM). Besides, the viability, T/C by setting is: under setting [16], 38.5%; under setting [17], 30%; under setting [18], 24.1%; under setting [19], 20.2%; under setting [20], 21.6%; (second compound 1 µM, first compound 10 µM) 17.4%. Also, the viability, T/C was 27% under setting [21]; 21.7% under setting [22]; 18.5% under setting [23]; 18.4% under setting [24]; 21.2% under setting [25]; 14.3% (second compound 3.16 µM, first compound 10 µM). The viability, T/C under setting [26] was 33.5%; the viability, T/C under setting [27] was 21.3%; the viability, T/C under setting [28] was 27.5%; the viability, T/C under setting [29] was 20.4%; the viability, T/C under setting [30] was 16.9%; the viability, T/C (second compound 10 µM, first compound 10 µM) is 11.2%.

Turning to `CCNC(=O)CC1N=C(c2ccc(Cl)cc2)c2cc(OC)ccc2-n2c(C)nnc21` (stereo not drawn), the viability, T/C was 105% [middle of 5 runs] (compound 0.0316 µM); 90% [middle of 5 runs] (compound 0.1 µM); 62.1% [middle of 5 runs] (compound 0.316 µM); 48.2% [middle of 5 runs] (compound 1 µM); 44.7% [middle of 5 runs] (compound 3.16 µM). The IC50 (curve of compound) is 880 nM [middle of 5 runs].

As to `CC(=O)Nc1cccc(-n2c(=O)n(C3CC3)c(=O)c3c(Nc4ccc(I)cc4F)n(C)c(=O)c(C)c32)c1`, the viability, T/C (compound 0.0001 µM) was 107% [middle of 5 runs]; the viability, T/C (compound 0.000316 µM) is 107% [middle of 5 runs]; the viability, T/C (compound 0.001 µM) was 87.9% [middle of 5 runs]; the viability, T/C (compound 0.00316 µM) was 61.7% [middle of 5 runs]; the viability, T/C (compound 0.01 µM) is 31% [middle of 5 runs]; the viability, T/C (compound 0.0316 µM) was 31.2% [middle of 5 runs]. Moreover, under “curve of compound”, the IC50 is 4.9 nM [middle of 5 runs].

`O=C(c1cc(Cc2n[nH]c(=O)c3ccccc23)ccc1F)N1CCN(C(=O)C2CC2)CC1`: the viability, T/C was 105% [middle of 5 runs] (compound 0.0316 µM), 102% [middle of 5 runs] (compound 0.1 µM), 93.2% [middle of 5 runs] (compound 0.316 µM) and 50.4% [middle of 5 runs] (compound 10 µM). Moreover, the IC50 (curve of compound) is 4880 nM and > 10000 nM and 4580 nM.

Regarding `CC(C)n1nc(-c2ccc3oc(N)nc3c2)c2c(N)ncnc21` + CC1OCC2(CCN(c3cnc(Sc4ccnc(N)c4Cl)c(N)n3)CC2)C1N, the IC50 is 1.56 nM under setting [1]; 0.678 nM under setting [2]; 0.392 nM under setting [3]; under 0.316 nM under setting [4]; under 0.316 nM under setting [5]. Also, the viability, T/C runs as follows: (second compound 0.1 µM, first compound 0.000316 µM) 76.5%; (second compound 0.1 µM, first compound 0.001 µM) 65.1%; (second compound 0.1 µM, first compound 0.00316 µM) 25.9%; under setting [31], 16.4%; under setting [6], 12.4%; under setting [7], 8.07%. In addition, the viability, T/C is 69.2% (second compound 0.316 µM, first compound 0.000316 µM); 40.2% (second compound 0.316 µM, first compound 0.001 µM); 21.3% (second compound 0.316 µM, first compound 0.00316 µM); 12% under setting [32]; 10% under setting [11]; 7.36% under setting [12]. The viability, T/C was 54.4% (second compound 1 µM, first compound 0.000316 µM); 30.5% (second compound 1 µM, first compound 0.001 µM); 11.9% (second compound 1 µM, first compound 0.00316 µM); 8.81% under setting [33]; 8.66% under setting [16]; 6.23% under setting [17]. In addition, the viability, T/C reads like this: (second compound 3.16 µM, first compound 0.000316 µM) 26.6%; (second compound 3.16 µM, first compound 0.001 µM) 22.4%; (second compound 3.16 µM, first compound 0.00316 µM) 10.6%; under setting [34], 7.28%; under setting [21], 6.71%; under setting [22], 4.89%. Further, the viability, T/C is, setting by setting: (second compound 10 µM, first compound 0.000316 µM) 22.5%; (second compound 10 µM, first compound 0.001 µM) 18.2%; (second compound 10 µM, first compound 0.00316 µM) 10.6%; under setting [35], 7%; under setting [26], 5.54%; under setting [27], 4.55%.

On to `CC(=O)OC12COC1CC(O)C1(C)C(=O)C(O)C3=C(C)C(OC(=O)C(O)C(NC(=O)OC(C)(C)C)c4ccccc4)CC(O)(C(OC(=O)c4ccccc4)C21)C3(C)C` (stereo not drawn) + COc1cc2nc(C)nc(NC(C)c3cc(N)cc(C(F)(F)F)c3)c2cc1OC1CCOC1, for which the IC50 is under 10 nM under setting [1]; under 10 nM under setting [2]; under 10 nM under setting [3]; under 10 nM under setting [4]; under 10 nM under setting [5]. For the same compound, the viability, T/C is 40% under setting [31]; 32.3% under setting [6]; 36.2% under setting [7]; 32.7% under setting [8]; 37.5% under setting [9]; 53.4% under setting [10]. Besides, the viability, T/C is, setting by setting: under setting [32], 38.5%; under setting [11], 35.6%; under setting [12], 34.4%; under setting [13], 27.5%; under setting [14], 40.9%; under setting [15], 41%. Moreover, the viability, T/C under setting [33] was 29.7%; the viability, T/C under setting [16] was 35.1%; the viability, T/C under setting [17] was 34.2%; the viability, T/C under setting [18] was 39.5%; the viability, T/C under setting [19] is 39.6%; the viability, T/C under setting [20] is 38.7%. In addition, the viability, T/C was 29.7% under setting [34]; 27.3% under setting [21]; 27.2% under setting [22]; 37% under setting [23]; 35.9% under setting [24]; 39.5% under setting [25]. Moreover, the viability, T/C reads like this: under setting [35], 34.2%; under setting [26], 31.1%; under setting [27], 51.7%; under setting [28], 30.7%; under setting [29], 33.7%; under setting [30], 40.6%.
